Laboratory results as given in patent US10660877B2 (BRISTOL-MYERS SQUIBB COMPANY, priority 2016, dated 2020).
pIC50: −log10 of the molar value. Read-outs that look alike come from different tables or passages of the source.

Key:
human TLR7 = human TLR7 (Homo sapiens (Human), UniProt Q9NYK1); assay: TLR7 inhibition reporter assay (HEK-Blue cells, SEAP reporter, gardiquimod stimulation); format: cell-based
human TLR9 = human TLR9 (Homo sapiens (Human), UniProt Q9NR96); assay: TLR9 inhibition reporter assay (HEK-Blue cells, SEAP reporter, ODN2006 stimulation);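 also: compounds tested over 0.05 nM to 50 µM, 22 h incubation, inhibition taken as SEAP signal drop from agonist plus DMSO wells toward a known inhibitor control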
human TLR8 = human TLR8 (Homo sapiens (Human), UniProt Q9NR97); assay: TLR8 inhibition reporter assay (HEK-Blue cells, SEAP reporter, R848 stimulation);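 also: compounds tested from 0.05 nM to 50 µM, 22 h at 37 °C, SEAP measured with HEK-Blue Detection, inhibition relative to agonist plus DMSO versus a known inhibitor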
[1] = HEK-Blue cells overexpressing human TLR7, gardiquimod 7.5 μM
[2] = read-out: TLR9 IC50, HEK-Blue cells overexpressing human TLR9, ODN2006 5 nM
[3] = read-out: TLR8 IC50, HEK-Blue cells overexpressing human TLR8, R848 15.9 μM

human TLR9, sequence (Q9NR96 26-1032): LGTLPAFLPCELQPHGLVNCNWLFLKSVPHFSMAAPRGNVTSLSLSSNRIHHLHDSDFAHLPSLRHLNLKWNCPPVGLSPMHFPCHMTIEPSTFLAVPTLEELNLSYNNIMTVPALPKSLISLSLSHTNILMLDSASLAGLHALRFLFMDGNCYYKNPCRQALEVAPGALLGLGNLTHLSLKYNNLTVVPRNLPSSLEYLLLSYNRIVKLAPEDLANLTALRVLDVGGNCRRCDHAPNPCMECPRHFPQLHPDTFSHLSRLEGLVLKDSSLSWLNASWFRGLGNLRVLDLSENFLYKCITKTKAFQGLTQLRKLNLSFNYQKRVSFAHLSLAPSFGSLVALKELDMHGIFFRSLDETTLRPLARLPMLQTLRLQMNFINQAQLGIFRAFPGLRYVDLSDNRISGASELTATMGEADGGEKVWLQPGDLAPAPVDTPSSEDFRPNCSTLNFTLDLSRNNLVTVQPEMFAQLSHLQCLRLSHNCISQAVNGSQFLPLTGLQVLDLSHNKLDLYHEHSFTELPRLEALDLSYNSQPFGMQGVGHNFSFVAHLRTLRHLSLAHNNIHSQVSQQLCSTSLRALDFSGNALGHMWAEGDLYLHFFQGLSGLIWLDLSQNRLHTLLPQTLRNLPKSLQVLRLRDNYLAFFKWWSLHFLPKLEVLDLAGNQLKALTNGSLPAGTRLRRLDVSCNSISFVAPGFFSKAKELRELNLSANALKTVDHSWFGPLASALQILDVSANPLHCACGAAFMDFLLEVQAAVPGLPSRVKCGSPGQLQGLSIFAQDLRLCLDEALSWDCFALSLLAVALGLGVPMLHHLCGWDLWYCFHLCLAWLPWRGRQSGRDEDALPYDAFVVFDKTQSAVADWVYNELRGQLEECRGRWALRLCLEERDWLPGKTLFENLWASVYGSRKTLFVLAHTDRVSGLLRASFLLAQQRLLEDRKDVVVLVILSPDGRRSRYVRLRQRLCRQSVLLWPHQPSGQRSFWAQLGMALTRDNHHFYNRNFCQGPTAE
human TLR8, sequence (Q9NR97 27-1041): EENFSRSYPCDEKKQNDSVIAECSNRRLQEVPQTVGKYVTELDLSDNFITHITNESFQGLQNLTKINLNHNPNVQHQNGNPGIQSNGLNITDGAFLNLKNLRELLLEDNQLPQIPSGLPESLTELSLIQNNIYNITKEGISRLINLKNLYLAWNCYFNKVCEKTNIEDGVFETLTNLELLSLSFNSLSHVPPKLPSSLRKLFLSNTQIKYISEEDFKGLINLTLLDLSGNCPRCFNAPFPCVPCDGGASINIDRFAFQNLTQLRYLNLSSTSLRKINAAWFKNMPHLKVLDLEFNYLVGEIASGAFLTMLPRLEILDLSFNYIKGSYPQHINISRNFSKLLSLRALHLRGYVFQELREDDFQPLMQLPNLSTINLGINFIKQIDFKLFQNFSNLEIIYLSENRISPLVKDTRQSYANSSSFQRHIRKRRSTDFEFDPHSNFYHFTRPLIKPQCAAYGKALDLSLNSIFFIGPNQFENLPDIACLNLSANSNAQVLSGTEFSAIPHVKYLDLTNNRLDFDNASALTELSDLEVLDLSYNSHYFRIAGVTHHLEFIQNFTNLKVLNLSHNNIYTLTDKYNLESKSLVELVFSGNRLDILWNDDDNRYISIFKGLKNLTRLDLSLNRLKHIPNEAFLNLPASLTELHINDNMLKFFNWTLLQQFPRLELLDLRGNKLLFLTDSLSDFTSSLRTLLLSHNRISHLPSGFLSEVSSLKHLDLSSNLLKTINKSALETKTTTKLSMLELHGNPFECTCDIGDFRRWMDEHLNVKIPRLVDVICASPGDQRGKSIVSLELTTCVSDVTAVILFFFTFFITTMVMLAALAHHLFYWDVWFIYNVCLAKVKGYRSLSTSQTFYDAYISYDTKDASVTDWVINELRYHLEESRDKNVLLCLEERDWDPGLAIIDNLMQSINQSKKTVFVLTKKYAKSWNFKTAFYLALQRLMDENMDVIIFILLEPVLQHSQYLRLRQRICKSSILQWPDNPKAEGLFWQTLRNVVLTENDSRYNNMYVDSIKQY
human TLR7, sequence (Q9NYK1 27-1049): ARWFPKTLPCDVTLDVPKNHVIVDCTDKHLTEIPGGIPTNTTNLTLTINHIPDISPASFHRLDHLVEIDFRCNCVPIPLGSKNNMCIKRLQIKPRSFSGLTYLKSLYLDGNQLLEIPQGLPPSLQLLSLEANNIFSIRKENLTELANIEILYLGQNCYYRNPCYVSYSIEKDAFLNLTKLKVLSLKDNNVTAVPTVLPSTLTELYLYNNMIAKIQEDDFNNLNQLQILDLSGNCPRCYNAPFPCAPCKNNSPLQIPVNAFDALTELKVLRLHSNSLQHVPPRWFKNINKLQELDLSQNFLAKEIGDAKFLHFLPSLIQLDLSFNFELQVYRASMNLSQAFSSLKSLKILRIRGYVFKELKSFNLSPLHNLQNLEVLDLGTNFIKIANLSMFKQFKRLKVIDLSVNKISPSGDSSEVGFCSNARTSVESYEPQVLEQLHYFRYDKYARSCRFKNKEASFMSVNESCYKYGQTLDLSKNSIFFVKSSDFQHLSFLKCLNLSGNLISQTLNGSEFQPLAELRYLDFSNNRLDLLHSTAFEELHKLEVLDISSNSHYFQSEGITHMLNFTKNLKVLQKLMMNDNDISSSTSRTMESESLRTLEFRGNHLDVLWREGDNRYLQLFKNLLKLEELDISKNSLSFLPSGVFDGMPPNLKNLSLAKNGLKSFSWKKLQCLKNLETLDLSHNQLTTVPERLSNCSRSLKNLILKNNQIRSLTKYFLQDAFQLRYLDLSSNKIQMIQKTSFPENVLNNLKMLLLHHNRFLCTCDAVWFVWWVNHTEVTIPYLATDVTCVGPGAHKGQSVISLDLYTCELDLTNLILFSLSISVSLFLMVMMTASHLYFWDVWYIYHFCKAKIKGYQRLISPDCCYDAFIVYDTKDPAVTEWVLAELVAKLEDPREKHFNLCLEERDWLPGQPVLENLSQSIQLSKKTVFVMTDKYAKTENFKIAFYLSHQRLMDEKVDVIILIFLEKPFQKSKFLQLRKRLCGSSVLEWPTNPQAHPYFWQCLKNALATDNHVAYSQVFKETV

## Cc1cc(-c2[nH]c3ccc(C4CCN(C(=O)CN5CCCC(C)C5)CC4)cc3c2C(C)C)cc(C)n1 (stereo not drawn) [Example 378, 1-(4-(2-(2,6-dimethylpyridin-4-yl)-3-isopropyl-1H-indol-5-yl)piperidin-1-yl)-2-(3-methylpiperidin-1-yl)ethan-1-one]
Human TLR7; [1]
  pIC50: 8.77
Human TLR9; [2]
  pIC50: 6.41
Human TLR8; [3]
  pIC50: 7.93

## Cc1cc(-c2[nH]c3ccc(C4CCN(C(=O)[C@H]5C[C@H]6CC[C@@H](C5)N6)CC4)cc3c2C(C)C)ccn1 [Example 580, ((1R,3r,5S)-8-azabicyclo[3.2.1]octan-3-yl)(4-(3-isopropyl-2-(2-methylpyridin-4-yl)-1H-indol-5-yl)piperidin-1-yl)methanone]
Human TLR7; [1]
  pIC50: 7.17
Human TLR9; [2]
  pIC50: 6.29
Human TLR8; [3]
  pIC50: 7.27

## Cc1nccc(-c2[nH]c3ccc(C4CCN(CC(=O)N(C)C)CC4)cc3c2C(C)C)c1F [Example 648, 2-(4-(2-(3-fluoro-2-methylpyridin-4-yl)-3-isopropyl-1H-indol-5-yl)piperidin-1-yl)-N,N-dimethylacetamide]
Human TLR7; [1]
  pIC50: 8.52
Human TLR9; [2]
  pIC50: 5.65
Human TLR8; [3]
  pIC50: 8.43

## Cc1cc(-c2[nH]c3ccc(C4CCN(CC(=O)NCC5CCCO5)CC4)cc3c2C(C)C)cc(C)n1 (stereo not drawn) [Example 266, 2-(4-(2-(2,6-dimethylpyridin-4-yl)-3-isopropyl-1H-indol-5-yl)piperidin-1-yl)-N-((tetrahydrofuran-2-yl)methyl)acetamide]
Human TLR7; [1]
  pIC50: 8.49
Human TLR9; [2]
  pIC50: 6.28
Human TLR8; [3]
  pIC50: 7.97

## Cc1cc(-c2[nH]c3ccc(C4CCN(CC(=O)N(C)CCCO)CC4)cc3c2C(C)C)cc(C)n1 [Example 288, 2-(4-(2-(2,6-dimethylpyridin-4-yl)-3-isopropyl-1H-indol-5-yl)piperidin-1-yl)-N-(3-hydroxypropyl)-N-methylacetamide]
Human TLR7; [1]
  pIC50: 8.00
Human TLR9; [2]
  pIC50: 5.83
Human TLR8; [3]
  pIC50: 7.46

## Cc1cc(-c2[nH]c3ccc(C4CCN(C(=O)CN(C)CCCO)CC4)cc3c2C(C)C)cc(C)n1 [Example 411, 1-(4-(2-(2,6-dimethylpyridin-4-yl)-3-isopropyl-1H-indol-5-yl)piperidin-1-yl)-2-((3-hydroxypropyl)(methyl)amino)ethan-1-one]
Human TLR7; [1]
  pIC50: 8.54
Human TLR9; [2]
  pIC50: 5.91
Human TLR8; [3]
  pIC50: 7.62

## Cc1cc(-c2[nH]c3ccc(C4CCN(C(=O)C(=O)N5CCNCC5)CC4)cc3c2C(C)C)cc(C)n1 [Example 857, 1-(4-(2-(2,6-dimethylpyridin-4-yl)-3-isopropyl-1H-indol-5-yl)piperidin-1-yl)-2-(piperazin-1-yl)ethane-1,2-dione]
Human TLR7; HEK-Blue cells, gardiquimod 7.5 μM
  pIC50: 8.89
Human TLR9; read-out: TLR9 IC50, HEK-Blue cells, ODN2006 5 nM
  pIC50: 6.36
Human TLR8; read-out: TLR8 IC50, HEK-Blue cells, R848 15.9 μM
  pIC50: 7.87

## Cc1cc(-c2[nH]c3ccc(C4CCN(C(=O)C(C)C)CC4)cc3c2C(C)C)ccn1 [Example 602, 1-(4-(3-isopropyl-2-(2-methylpyridin-4-yl)-1H-indol-5-yl)piperidin-1-yl)-2-methylpropan-1-one]
Human TLR7; [1]
  pIC50: 7.61
Human TLR9; [2]
  pIC50: 4.49
Human TLR8; [3]
  pIC50: 6.80

## CCc1c(-c2cc(C)nc(C)c2)[nH]c2ccc(C3CCN(C(=O)CN(C)C)CC3)cc12 [Example 528, 2-(dimethylamino)-1-(4-(2-(2,6-dimethylpyridin-4-yl)-3-ethyl-1H-indol-5-yl)piperidin-1-yl)ethan-1-one]
Human TLR7; [1]
  pIC50: 7.80
Human TLR9; [2]
  pIC50: 6.82
Human TLR8; [3]
  pIC50: 7.29

## COc1ncc(CN2CCC(c3ccc4[nH]c(-c5ccnc(C)c5F)c(C(C)C)c4c3)CC2)cn1 [Example 731, 2-(3-fluoro-2-methylpyridin-4-yl)-3-isopropyl-5-(1-((2-methoxypyrimidin-5-yl)methyl)piperidin-4-yl)-1H-indole]
Human TLR7; [1]
  pIC50: 8.05
Human TLR9; [2]
  pIC50: 5.88
Human TLR8; [3]
  pIC50: 8.57

## CCOc1cc(-c2[nH]c3ccc(C4CCN(C5CCN(CC(C)C)CC5)CC4)cc3c2CC)ccn1 [Example 768, 2-(2-ethoxypyridin-4-yl)-3-ethyl-5-(1′-isobutyl-[1,4′-bipiperidin]-4-yl)-1H-indole]
Human TLR7; [1]
  pIC50: 5.14
Human TLR9; [2]
  pIC50: 5.89
Human TLR8; [3]
  pIC50: 5.93

## CCc1c(-c2ccnc(OC)c2)[nH]c2ccc(C3CCN(C4CCCN(C5CCCC5)CC4)CC3)cc12 (stereo not drawn) [Example 793, 5-(1-(1-cyclopentylazepan-4-yl)piperidin-4-yl)-3-ethyl-2-(2-methoxypyridin-4-yl)-1H-indole]
Human TLR7; [1]
  pIC50: 6.43
Human TLR9; [2]
  pIC50: 6.60
Human TLR8; [3]
  pIC50: 7.53

## Cc1cc(-c2[nH]c3ccc(C4CCN(CC(=O)NC5CCOC5)CC4)cc3c2C(C)C)cc(C)n1 (stereo not drawn) [Example 282, 2-(4-(2-(2,6-dimethylpyridin-4-yl)-3-isopropyl-1H-indol-5-yl)piperidin-1-yl)-N-(tetrahydrofuran-3-yl)acetamide]
Human TLR7; [1]
  pIC50: 8.43
Human TLR9; [2]
  pIC50: 5.57
Human TLR8; [3]
  pIC50: 8.05

## Cc1cc(-c2[nH]c3ccc(C4CCN(S(=O)(=O)Cc5ccccc5)CC4)cc3c2C(C)C)ccn1 [Example 556, 5-(1-(benzylsulfonyl)piperidin-4-yl)-3-isopropyl-2-(2-methylpyridin-4-yl)-1H-indole]
Human TLR7; [1]
  pIC50: 6.66
Human TLR9; [2]
  pIC50: < 4.30
Human TLR8; [3]
  pIC50: 6.14

## Cc1cc(-c2[nH]c3ccc(C4CCN(CC(=O)NCC5(C)CC5)CC4)cc3c2C(C)C)cc(C)n1 [Example 255, 2-(4-(2-(2,6-dimethylpyridin-4-yl)-3-isopropyl-1H-indol-5-yl)piperidin-1-yl)-N-((1-methylcyclopropyl)methyl)acetamide]
Human TLR7; [1]
  pIC50: 8.16
Human TLR9; [2]
  pIC50: 6.18
Human TLR8; [3]
  pIC50: 7.69

## Cc1cc(-c2[nH]c3ccc(C4CCN(C(=O)C5CCOC5)CC4)cc3c2C(C)C)cc(C)n1 (stereo not drawn) [Example 199, (4-(2-(2,6-dimethylpyridin-4-yl)-3-isopropyl-1H-indol-5-yl)piperidin-1-yl)(tetrahydrofuran-3-yl)methanone]
Human TLR7; [1]
  pIC50: 8.44
Human TLR9; [2]
  pIC50: 4.33
Human TLR8; [3]
  pIC50: 7.06

## Cc1cc(-c2[nH]c3ccc(C4CCN(C(=O)C5(N(C)C)CC5)CC4)cc3c2C(C)C)cc(C)n1 [Example 172, (1-(dimethylamino)cyclopropyl)(4-(2-(2,6-dimethylpyridin-4-yl)-3-isopropyl-1H-indol-5-yl)piperidin-1-yl)methanone]
Human TLR7; [1]
  pIC50: 8.10
Human TLR9; [2]
  pIC50: 5.29
Human TLR8; [3]
  pIC50: 7.00

## Cc1cc(-c2[nH]c3ccc(C4CCN(Cc5c[nH]c(C)n5)CC4)cc3c2CC(F)F)cc(C)n1 [Example 538, 3-(2,2-difluoroethyl)-2-(2,6-dimethylpyridin-4-yl)-5-(1-((2-methyl-1H-imidazol-4-yl)methyl)piperidin-4-yl)-1H-indole]
Human TLR7; [1]
  pIC50: 7.40
Human TLR9; [2]
  pIC50: 7.16
Human TLR8; [3]
  pIC50: 7.46

## Cc1cc(-c2[nH]c3ccc(C4CCN(CC(=O)N[C@H](CO)CC(C)C)CC4)cc3c2C(C)C)cc(C)n1 [Example 276, (S)-2-(4-(2-(2,6-dimethylpyridin-4-yl)-3-isopropyl-1H-indol-5-yl)piperidin-1-yl)-N-(1-hydroxy-4-methylpentan-2-yl)acetamide]
Human TLR7; [1]
  pIC50: 8.20
Human TLR9; [2]
  pIC50: 6.07
Human TLR8; [3]
  pIC50: 7.73

## Cc1cc(-c2[nH]c3ccc(C4CCN(C5CC(C)OC(C)C5)CC4)cc3c2C(C)C)ccn1 (stereo not drawn) [Example 712, 5-(1-(2,6-dimethyltetrahydro-2H-pyran-4-yl)piperidin-4-yl)-3-isopropyl-2-(2-methylpyridin-4-yl)-1H-indole]
Human TLR7; [1]
  pIC50: 7.43
Human TLR9; [2]
  pIC50: 5.92
Human TLR8; [3]
  pIC50: 7.79

## Cc1cc(-c2[nH]c3ccc(C4CCN(Cc5ccn(C)n5)CC4)cc3c2C(C)C)cc(C)n1 [Example 445, 2-(2,6-dimethylpyridin-4-yl)-3-isopropyl-5-(1-((1-methyl-1H-pyrazol-3-yl)methyl)piperidin-4-yl)-1H-indole]
Human TLR7; [1]
  pIC50: 8.44
Human TLR9; [2]
  pIC50: 6.50
Human TLR8; [3]
  pIC50: 9.15

## Cc1cc(-c2[nH]c3ccc(C4CCN(C(=O)CN(CCO)Cc5ccc(F)cc5)CC4)cc3c2C(C)C)cc(C)n1 [Example 407, 1-(4-(2-(2,6-dimethylpyridin-4-yl)-3-isopropyl-1H-indol-5-yl)piperidin-1-yl)-2-((4-fluorobenzyl)(2-hydroxyethyl)amino)ethan-1-one]
Human TLR7; [1]
  pIC50: 8.15
Human TLR9; [2]
  pIC50: 6.31
Human TLR8; [3]
  pIC50: 7.15

## Cc1cc(-c2[nH]c3ccc(C4CCN(C(=O)C5CCOC5)CC4)cc3c2C(C)C)ccn1 (stereo not drawn) [Example 599, (4-(3-isopropyl-2-(2-methylpyridin-4-yl)-1H-indol-5-yl)piperidin-1-yl)(tetrahydrofuran-3-yl)methanone]
Human TLR7; [1]
  pIC50: 7.73
Human TLR9; [2]
  pIC50: 4.36
Human TLR8; [3]
  pIC50: 6.75

## CC(C)c1c(-c2ccnc(F)c2)[nH]c2ccc(C3CCN(C4CCN(C)CC4)CC3)cc12 [Example 523, 2-(2-fluoropyridin-4-yl)-3-isopropyl-5-(1′-methyl-[1,4′-bipiperidin]-4-yl)-1H-indole]
Human TLR7; [1]
  pIC50: 7.59
Human TLR9; [2]
  pIC50: 6.30
Human TLR8; [3]
  pIC50: 7.59

## Cc1cc(-c2[nH]c3ccc(C4CCN(C(=O)CNCC(C)(C)N5CCOCC5)CC4)cc3c2C(C)C)cc(C)n1 [Example 371, 1-(4-(2-(2,6-dimethylpyridin-4-yl)-3-isopropyl-1H-indol-5-yl)piperidin-1-yl)-2-((2-methyl-2-morpholinopropyl)amino)ethan-1-one]
Human TLR7; [1]
  pIC50: 8.43
Human TLR9; TLR9 IC50, HEK-Blue cells overexpressing human TLR9, ODN2006 5 nM
  pIC50: 6.62
Human TLR8; TLR8 IC50, HEK-Blue cells overexpressing human TLR8, R848 15.9 μM
  pIC50: 7.69

## Cc1cc(-c2[nH]c3ccc(C4CCN(C(=O)CN(C)C)CC4)cc3c2C(C)C)cc(F)n1 [Example 501, 2-(dimethylamino)-1-(4-(2-(2-fluoro-6-methylpyridin-4-yl)-3-isopropyl-1H-indol-5-yl)piperidin-1-yl)ethan-1-one]
Human TLR7; [1]
  pIC50: 8.26
Human TLR9; [2]
  pIC50: 6.00
Human TLR8; [3]
  pIC50: 7.52
